Data: patent US9029563B2, “Substituted 1-benzylindolin-2-one analogs as positive allosteric modulators of muscarinic acetylcholine M1 receptors” (Vanderbilt University, priority 2012, dated 2015)

Molecular target: T1, mAChR M1 (UniProt P08482)
T1 sequence (P08482 1-460): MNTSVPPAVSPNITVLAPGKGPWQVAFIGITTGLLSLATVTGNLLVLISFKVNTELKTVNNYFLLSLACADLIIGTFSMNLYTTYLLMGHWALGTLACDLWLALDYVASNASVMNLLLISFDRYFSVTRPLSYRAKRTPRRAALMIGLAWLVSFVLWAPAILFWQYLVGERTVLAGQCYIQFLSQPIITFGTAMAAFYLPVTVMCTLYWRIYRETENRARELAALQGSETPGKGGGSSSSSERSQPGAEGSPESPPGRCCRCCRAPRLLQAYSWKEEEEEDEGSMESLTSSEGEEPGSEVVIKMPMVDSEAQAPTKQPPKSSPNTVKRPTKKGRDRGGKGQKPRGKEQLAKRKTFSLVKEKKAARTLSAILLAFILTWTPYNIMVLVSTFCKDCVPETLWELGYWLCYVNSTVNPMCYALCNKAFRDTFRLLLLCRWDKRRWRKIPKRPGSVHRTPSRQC
Experiment: mAChR M1 cell-based functional assay (calcium mobilization, PAM mode)
Settings: for Emax: Percent of AChmax activity in presence of 30 μM test compound; for EC50: potentiation of EC20 acetylcholine response, calcium flux in CHO-K1 cells expressing mAChR M1, >10 μM is estimated for low potency compounds without plateau
Text: Chinese hamster ovary (CHO-K1) cells stably expressing rat (r)M1 were purchased from the American Type Culture Collection and cultured according to their indicated protocol. CHO cells stably expressing human (h)M2, hM3, and hM5 were described previously (Levey et al., 1991); hM1 and hM4 cDNAs were purchased from Missouri S&T cDNA Resource; rM4 cDNA was provided by T. I. Bonner (National Institutes of Health, Bethesda, Md.). rM2 and rM3 were cloned from a rat brain cDNA library and sequence verified. hM1, rM2, rM3, hM4, and rM4 cDNAs were used to stably transfect CHO-K1 cells purchased from the American Type Culture Collection using Lipofectamine-2000. To make stable rM2, hM2, hM4, and rM4 cell lines for use in calcium mobilization assays, these cells also were stably transfected with a chimeric G-protein (Gqi5) (provided by B.R. Conklin, University of California, San Francisco) using Lipofectamine 2000. rM1, hM1, rM3, hM3, rM5, and hM5 cells were grown in Ham's F-12 medium containing 10% heat-inactivated fetal bovine serum (FBS), 20 mM HEPES, and 50 μg/mL G418 sulfate. rM2-Gqi5, hM2-Gqi5, and hM4-Gqi5 cells were grown in the same medium also containing 500 μg/mL Hygromycin B. Stable rM4-Gqi5 cells were grown in DMEM containing 10% heat-inactivated FBS, 20 mM HEPES, 400 μg/mL G418 sulfate, and 500 μg/mL Hygromycin B.
For high throughput measurement of agonist-evoked increases in intracellular calcium, CHO-K1 cells stably expressing muscarinic receptors were plated in growth medium lacking G418 and hygromycin at 15,000 cells/20 μL/well in Greiner 384-well black-walled, tissue culture (TC)-treated, clear-bottom plates (VWR). Cells were incubated overnight at 37° C. and 5% CO2. The next day, cells were washed using an ELX 405 (BioTek) with four washes (80 μL) of assay buffer then aspirated to 20 μL. Next, 20 μL of 16 μM Fluo-4/acetoxymethyl ester (Invitrogen, Carlsbad, Calif.) prepared as a 2.3 mM stock in DMSO and mixed in a 1:1 ratio with 10% (w/v) Pluronic F-127 and diluted in assay buffer was added to the wells and the cell plates were incubated for 50 min at 37° C. and 5% CO2. Dye was removed by washing with the ELX 405 (four 80 μL washes of assay buffer) then aspirated to 20 μL. Compound master plates were formatted in an 11 point CRC format (1:3 dilutions) in 100% DMSO with a starting concentration of 10 mM using the BRAVO liquid handler (Agilent). Test compound CRCs were then transferred to daughter plates (240 nL) using the Echo acoustic plate reformatter (Labcyte, Sunnyvale, Calif.) and then diluted into assay buffer (40 μL) to a 2× stock using a Thermo Fisher Combi (Thermo Fisher Scientific, Waltham, Mass.).
Calcium flux was measured using the Functional Drug Screening System (FDSS) 6000 (Hamamatsu Corporation, Tokyo, Japan) as an increase in the fluorescent static ratio. Compounds were applied to cells (20 μL, 2×) using the automated system of the FDSS 6000 at 4 s into the 300 s protocol and the data were collected at 1 Hz. At 144 s into the 300 s protocol, 10 μL of an EC20 concentration of the muscarinic receptor agonist acetylcholine was added (5×), followed by the addition of 12 μL an EC80 concentration of acetylcholine at the 230 s time point (5×). Agonist activity was analyzed as a concentration-dependent increase in calcium mobilization upon compound addition. Positive allosteric modulator activity was analyzed as a concentration-dependent increase in the EC20 acetylcholine response. Antagonist activity was analyzed as a concentration-dependent decrease in the EC80 acetylcholine response. Concentration-response curves were generated using a four-parameter logistical equation in XLFit curve fitting software (IDBS, Bridgewater, N.J.) for Excel (Microsoft, Redmond, Wash.) or Prism (GraphPad Software, Inc., San Diego, Calif.).
The calcium mobilization assay was also used to determine “efficacy”. […]

| Structure (SMILES) | Emax [%] | EC50 [µM] |
| --- | --- | --- |
| Cn1cc(-c2ccc(CN3C(=O)C(N)c4ccccc43)c(F)c2)cn1 (stereo not shown) [Compound B20] | 46 | 1.36 |
| CN(C)C1(C)C(=O)N(Cc2ccc(-c3cnn(C)c3)cc2)c2ccccc21 (racemic) [Compound B7, 3-(dimethylamino)-3-methyl-1-(4-(1-methyl-1H-pyrazol-4-yl)benzyl)indolin-2-one] | 43 | 5.5 |
| Cn1cc(-c2ccc(CN3C(=O)C(O)(C(F)(F)F)c4ccccc43)c(F)c2)cn1 (stereo not shown) [Compound B6, 1-(2-fluoro-4-(1-methyl-1H-pyrazol-4-yl)benzyl)-3-hydroxy-3-(trifluoromethyl)indolin-2-one] | 60 | 5 |
| Cc1n[nH]cc1-c1ccc(CN2C(=O)C(O)(C(F)(F)F)c3ccccc32)c(F)c1 (stereo not shown) [Compound B5] | 37 | 4.9 |
| CC(C)n1cc(-c2ccc(CN3C(=O)C(O)(C(F)(F)F)c4ccccc43)c(F)c2)cn1 (stereo not shown) [Compound B13] | 38 | > 10 |
| CCn1cc(-c2ccc(CN3C(=O)C(O)(C(F)(F)F)c4ccccc43)c(F)c2)cn1 (stereo not shown) [Compound B14] | 45 | > 10 |
| Cn1cc(-c2ccc(CN3C(=O)C(O)(C(F)(F)F)c4cc(F)ccc43)c(F)c2)cn1 (stereo not shown) [Compound B3] | 35 | 3.9 |
| Cn1cc(-c2ccc(CN3C(=O)C(O)(C(F)(F)F)c4ccccc43)c(F)c2)cn1 (stereo not shown) [Compound B19] | 54 | 3.64 |
| Cn1cc(-c2ccc(CN3C(=O)C(O)(C(F)(F)F)c4ccccc43)c(F)c2)cn1 (single isomer, unassigned) [Compound B2, 1-(2-fluoro-4-(1-methyl-1H-pyrazol-4-yl)benzyl)-3-hydroxy-3-(trifluoromethyl)indolin-2-one] | 68 | 3.4 |
| Cn1cc(-c2ccc(CN3C(=O)C(O)(C(F)(F)F)c4ccccc43)c(Cl)c2)cn1 (stereo not shown) [Compound B10, 1-(2-chloro-4-(1-methyl-1H-pyrazol-4-yl)benzyl)-3-hydroxy-3-(trifluoromethyl)indolin-2-one] | 41 | > 10 |
| Cn1cc(-c2ccc(CN3C(=O)C(O)(C(F)(F)F)c4ccccc43)c(F)c2)cn1 (single isomer, unassigned) [Compound B18, 1-(2-fluoro-4-(1-methyl-1H-pyrazol-4-yl)benzyl)-3-hydroxy-3-(trifluoromethyl)indolin-2-one] | – | > 30 |
| Cn1cc(-c2ccc(CN3C(=O)C(O)(CF)c4ccccc43)c(F)c2)cn1 (stereo not shown) [Compound B4, 1-(2-fluoro-4-(1-methyl-1H-pyrazol-4-yl)benzyl)-3-(fluoromethyl)-3-hydroxyindolin-2-one] | 52 | 4.6 |
| CC(c1ccc(-c2cnn(C)c2)cc1F)N1C(=O)Cc2ccccc21 (stereo not shown) [Compound B24] | 44 | > 10 |
| Cn1cc(-c2ccc(CN3C(=O)C(O)(C(F)(F)F)c4ccccc43)cc2)cn1 (stereo not shown) [Compound B12] | 63 | > 10 |
| Cn1cc(-c2ccc(CN3C(=O)C(C)(N)c4ccccc43)cc2)cn1 (racemic) [Compound B15, 3-amino-3-methyl-1-(4-(1-methyl-1H-pyrazol-4-yl)benzyl)indolin-2-one] | 28 | > 10 |
| Cn1cc(-c2ccc(CN3C(=O)C(O)(C(F)(F)F)c4ccccc43)cn2)cn1 (stereo not shown) [Compound B17] | 54 | > 10 |
| CC1C(=O)N(Cc2ccc(-c3cnn(C)c3)cc2F)c2ccccc21 (stereo not shown) [Compound B9] | 55 | > 10 |
| Cn1cc(-c2ccc(CN3C(=O)C(O)(C(F)(F)F)c4ccccc43)cc2F)cn1 (stereo not shown) [Compound B11] | 45 | > 10 |
| Cn1cc(-c2ccc(CN3C(=O)C(O)(C(F)(F)F)c4ccccc43)cc2F)cn1 (stereo not shown) [Compound B21] | 38 | > 10 |
| Cn1cc(-c2ccc(CN3C(=O)C(C)(O)c4ccccc43)c(F)c2)cn1 (stereo not shown) [Compound B8, 1-(2-fluoro-4-(1-methyl-1H-pyrazol-4-yl)benzyl)-3-hydroxy-3-methylindolin-2-one] | 52 | > 10 |
| Cn1cc(-c2ccc(CN3C(=O)Cc4ccccc43)c(F)c2)cn1 [Compound B1] | 75 | 2.6 |
| CCCn1cc(-c2ccc(CN3C(=O)C(O)(C(F)(F)F)c4ccccc43)c(F)c2)cn1 (stereo not shown) [Compound B16] | 31 | > 10 |
